In patent US20050080113A1, “Medicinal compositions” (priority 2001, published 2005):

Work on `CCC(=O)Nc1cc(-c2sc(CC)nc2-c2ccc(F)cc2)ccn1` [H 84-2, N-[4 [2 ethyl-4 (4-fluorophenyl)-1,3 thiazol-5 yl]-2 pyridyl]propionamide] yielded a melting point of 156 to 157 °C. `CCC(=O)Nc1cc(-c2sc(-c3ccc(S(C)(=O)=O)cc3)nc2-c2cccc(C)c2)ccn1` [H 98-2, N-[4 [4 (3 methylphenyl)-2-(4 methylsulfonylphenyl)-1,3 thiazol-5 yl]-2 pyridyl]propionamide] gave a melting point of 238 to 239 °C. In the case of `Cc1cccc(-c2ncsc2-c2ccnc(N)c2)c1` [H 27-1, 4 [4 (3 methylphenyl)-1,3-thiazol-5 yl]-2 pyridylamine], the melting point is reported as 91 to 92 °C. Compound `Cc1cccc(-c2nc(-c3ccc([S+](C)[O-])cc3)sc2-c2cc(C)nc(C)c2)c1` (stereo not drawn) [H 55, 5 (2,6 dimethyl-4 pyridyl)-4 (3 methylphenyl)-2 (4-methylsulfinylphenyl)-1,3 thiazole] has a melting point of 133 to 134 °C. In the case of `COc1ccc(-c2nc(N)sc2-c2ccncc2)cc1` [13-14, [4-(4-methoxyphenyl)-5-(4-pyridyl)-1,3-thiazol-2-yl]amine], the melting point is reported as 282 to 284 °C. `CCC(=O)Nc1cc(-c2sc(C(C)=O)nc2-c2cccc(C)c2)ccn1` [H 106, N-[4 [2 acetyl-4 (3 methylphenyl)-1,3 thiazol-5 yl]-2-pyridyl]propionamide] showed a melting point of 121 to 123 °C. Work on `CCc1nc(-c2cccc(Cl)c2)c(-c2ccnc(NC3CCCC3)c2)s1` [H 36-11, 4-[4-(3-chlorophenyl)-2-ethyl-1,3-thiazol-5-yl]-N-cyclopentyl-2-pyridylamine] yielded a melting point of 110 to 111 °C. `Cc1cc(C)cc(-c2nc(-c3ccc([S+](C)[O-])cc3)sc2-c2cc(C)nc(C)c2)c1` (stereo not drawn) [H 56-2, 4 (3,5 dimethylphenyl)-5-(2,6 dimethyl-4 pyridyl)-2 (4 methylsulfinylphenyl)-1,3-thiazole] gave a melting point of 151 to 154 °C. Work on `Cc1cccc(-c2nc(-c3ccc(S(C)(=O)=O)cc3)sc2-c2ccnc(N3CCOCC3)c2)c1` [H 36-8, 4 (3 methylphenyl)-2 (4-methylsulfonylphenyl)-5 (2 morpholino-4 pyridyl)-1,3 thiazole] yielded a melting point of 200 to 202 °C. In the case of `CC(=O)Nc1cc(-c2sc(C(C)OC(=O)c3ccccc3)nc2-c2cccc(C)c2)ccn1` (stereo not drawn) [H 110, 1 [5 (2 acetylamino-4-pyridyl)-4 (3 methylphenyl)-1,3 thiazol-2 yl]ethyl benzoate], the melting point is reported as 110 to 113 °C. With `CCCNC(=O)Nc1nc(-c2cc(C)cc(C)c2)c(-c2ccncc2)s1` [23-202, N-[4 (3,5 dimethylphenyl)-5 (4 pyridyl)-1,3 thiazol-2 yl]-N′-propylurea] the melting point was 128 to 130 °C. With `CCCC(=O)Nc1cc(-c2sc(CC)nc2-c2cccc(Cl)c2)ccn1` [H 86, N-[4 [4 (3 chlorophenyl)-2-ethyl-1,3 thiazol-5 yl]-2 pyridyl]butyramide] the melting point was 119 to 120 °C. Work on `Cc1cccc(-c2nc(-c3ccc(F)cc3F)sc2-c2ccnc(C)c2)c1` [H 14-5, 2 (2,4 difluorophenyl)-4-(3 methylphenyl)-5 (2 methyl-4 pyridyl)-1,3 thiazole] yielded a melting point of 90 to 91 °C. Work on `CCc1nc(-c2cccc(C)c2)c(-c2ccnc(CC#N)c2)s1` [H 71, 5 (2 cyanomethyl-4 pyridyl)-2 ethyl-4 (3 methylphenyl)-1,3-thiazole] yielded a melting point of 68 to 69 °C. `CSc1ccc(-c2nc(-c3cccc(C)c3)c(-c3ccnc(NC(=O)c4cccs4)c3)s2)cc1` [D 16-17, N-[4 [4 (3 methylphenyl)-2 (4 methylthiophenyl)-1,3 thiazol-5 yl]-2 pyridyl]-2-thiophenecarboxamide] showed a melting point of 145 to 147 °C. `CCC(=O)Nc1cc(-c2sc(C3CCN(C)CC3)nc2-c2cccc(Cl)c2)ccn1.Cl.Cl` gave a melting point of 350 to 351 °C. Compound `Cc1cccc(-c2nc(-c3ccc(S(C)(=O)=O)cc3)sc2-c2ccnc(SCc3ccccc3)c2)c1` [D 27, 5 (2 benzylthio-4 pyridyl)-4 (3-methylphenyl)-2 (4 methylsulfonylphenyl)-1,3 thiazole] has a melting point of 182 to 185 °C. In the case of `Cc1cc(C)cc(-c2nc(NC(=O)c3ccccc3)sc2-c2ccncc2)c1` [23-197, N-[4 (3,5 dimethylphenyl)-5 (4 pyridyl)-1,3 thiazol-2-yl]benzamide], the melting point is reported as 285 to 286 °C. For `COc1ccc(-c2nc(N)sc2-c2ccnc(N)c2)cc1` [H 1, [5 (2 amino-4 pyridyl)-4 (4 methoxyphenyl)-1,3 thiazol-2-yl]amine], the melting point was 251 to 254 °C. In the case of `CCC(=O)Nc1cc(-c2sc(C(C)O)nc2-c2cccc(C)c2)ccn1` (stereo not drawn) [H 104, N-[4 [2 (1 hydroxyethyl)-4 (3 methylphenyl)-1,3 thiazol-5 yl]-2 pyridyl]propionamide], the melting point is reported as 115 to 116 °C. In the case of `Cc1cccc(-c2nc(N(C)C(=O)c3cccnc3)sc2-c2ccnc(NC3CCCCC3)c2)c1` [H 42-8, N-[5 (2 cyclohexylamino-4-pyridyl)-4 (3 methylphenyl)-1,3 thiazol-2 yl]-N-methylnicotinamide], the melting point is reported as 147 to 148 °C. Compound `CCc1cccc(-c2nc(CC)sc2-c2ccnc(N)c2)c1` [H 20-8, 4 [2 ethyl-4 (3-ethylphenyl)-1,3 thiazol-5 yl]-2 pyridylamine] has a melting point of 128 to 129 °C. Work on `Cc1cccc(-c2nc(NC(=O)OCCCl)sc2-c2ccnc(C)c2)c1` [H 62, 2 chloroethyl [4 (3-methylphenyl)-5 (2 methyl-4 pyridyl)-1,3 thiazol-2-yl]carbamate] yielded a melting point of 156 to 158 °C. For `CC(=O)Nc1nc(-c2cccc(C)c2)c(-c2ccnc(C)c2)s1` [H 39, N-[4-(3-methylphenyl)-5-(2-methyl-4-pyridyl)-1,3-thiazol-2-yl]acetamide], the melting point was 230 to 231 °C. With `CCc1nc(-c2cccs2)c(-c2ccnc(NC(=O)c3ccccc3)c2)s1` [L 70-4, N-[4 [2 ethyl-4 (2-thienyl)-1,3 thiazol-5 yl]-2 pyridyl]benzamide] the melting point was 116 to 117 °C. With `Cc1cc(C)cc(-c2nc(-c3ccc(S(C)(=O)=O)cc3)sc2-c2cc(C)nc(C)c2)c1` [H 58-3, 4 (3,5 dimethylphenyl)-5-(2,6 dimethyl-4 pyridyl)-2 (4 methylsulfonylphenyl)-1,3-thiazole] the melting point was 217 to 220 °C. `Cc1cccc(-c2nc(-c3ccc(S(C)(=O)=O)cc3)sc2-c2ccnc(NCc3ccc4ccccc4c3)c2)c1` [D 21-7, N-[4 [4 (3 methylphenyl)-2-(4 methylsulfonylphenyl)-1,3 thiazol-5 yl]-2 pyridyl]-N-(2-naphthylmethyl)amine] gave a melting point of 167 to 168 °C. With `CCC(=O)Nc1cc(-c2sc(CCSC)nc2-c2cccc(C)c2)ccn1` [H 102-1, N-[4 [4 (3 methylphenyl)-2 [2 (methylthio)ethyl]-1,3 thiazol-5 yl]-2-pyridyl]propionamide] the melting point was 85 to 86 °C. In the case of `CC(=O)Nc1cc(-c2sc(-c3ccc(S(C)(=O)=O)cc3)nc2-c2cccc(Cl)c2)ccn1` [H 58-6, N-[4-[4-(3-chlorophenyl)-2-(4-methylsulfonylphenyl)-1,3-thiazol-5-yl]-2-pyridyl]acetamide], the melting point is reported as 216 to 217 °C. `CCc1nc(-c2cccc(C)c2)c(-c2ccnc(NC3CCCCC3)c2)s1` [H 36-4, N-cyclohexyl-4-[2-ethyl-4-(3-methylphenyl)-1,3-thiazol-5-yl]-2-pyridylamine] gave a melting point of 110 to 112 °C. `Cc1cccc(-c2nc(NC(=O)c3cccnc3)sc2-c2ccnc(NC3CCCC3)c2)c1` [H 42-4, N-[5 (2 cyclopentylamino-4 pyridyl)-4 (3 methylphenyl)-1,3 thiazol-2 yl]nicotinamide] showed a melting point of 215 to 216 °C. With `Cc1cccc(-c2nc(N)sc2-c2ccnc(N3CCOCC3)c2)c1` [H 34-1, [4 (3 methylphenyl)-5 (2-morpholino-4 pyridyl)-1,3 thiazol-2 yl]amine] the melting point was 188 to 189 °C. In the case of `Cc1cccc(-c2nc(-c3ccc(F)cc3)sc2-c2ccnc(NC(=O)Cc3ccccc3)c2)c1` [D 14, N-[4-[2-(4-fluorophenyl)-4-(3-methylphenyl)-1,3-thiazol-5-yl]-2-pyridyl]phenylacetamide], the melting point is reported as 187 to 190 °C. Work on `CCCc1cccc(-c2nc(CC)sc2-c2ccnc(N)c2)c1` [H 20-11, 4 [2 ethyl-4 (3-propylphenyl)-1,3 thiazol-5 yl]-2 pyridylamine] yielded a melting point of 72 to 74 °C. Work on `CSc1ccc(-c2nc(-c3cccc(C)c3)c(-c3ccnc(NCc4ccccc4)c3)s2)cc1` [D 19-17, N-benzyl-N-[4-[4-(3-methylphenyl)-2-(4-methylthiophenyl)-1,3-thiazol-5-yl]-2-pyridyl]amine] yielded a melting point of 134 to 136 °C. With `Cc1cccc(-c2nc(-c3ccc(S(C)(=O)=O)cc3)sc2-c2ccnc(NCc3cccs3)c2)c1` [D 25-5, N-[4 [4 (3 methylphenyl)-2-(4 methylsulfonylphenyl)-1,3 thiazol-5 yl]-2 pyridyl]-N-(2-thienylmethyl)amine] the melting point was 107 to 109 °C. In the case of `Cc1cccc(-c2nc(N)sc2-c2ccnc(C)c2)c1` [H 7-4, [4-(3-methylphenyl)-5-(2-methyl-4-pyridyl)-1,3-thiazol-2-yl]amine], the melting point is reported as 205 to 206 °C. `CC(C)(C)c1ccc(-c2nc(NC(=O)c3cccnc3)sc2-c2ccncc2)cc1` [23-165, N-[4 [4 (1,1 dimethylethyl)phenyl]-5 (4 pyridyl)-1,3 thiazol-2 yl]nicotinamide] gave a melting point of 326 to 328 °C. `Cc1cccc(-c2nc(C(C)(F)F)sc2-c2ccnc(N)c2)c1` [H 113-2, 4 [2 (1,1 difluoroethyl)-4 (3 methylphenyl)-1,3 thiazol-5 yl]-2 pyridylamine] gave a melting point of 140 to 141 °C. For `Cc1cccc(-c2nc(-c3ccc(S(C)(=O)=O)cc3)sc2-c2ccnc(N(C)C3CCCCC3)c2)c1` [H 37-2, N-cyclohexyl-N-methyl-4-[4 (3 methylphenyl)-2 (4 methylsulfonylphenyl)-1,3 thiazol-5-yl]-2 pyridylamine], the melting point was 173 to 174 °C. Work on `CCC(=O)Nc1cc(-c2sc(CC)nc2-c2cccc(F)c2)ccn1` [H 84-5, N-[4 [2 ethyl-4 (3-fluorophenyl)-1,3 thiazol-5 yl]-2 pyridyl]propionamide] yielded a melting point of 121 to 122 °C. Compound `CCCc1nc(-c2cccc(C)c2)c(-c2ccnc(NC(=O)CCc3ccccc3)c2)s1` [D 16-8, N-[4-[4-(3-methylphenyl)-2-propyl-1,3-thiazol-5-yl]-2-pyridyl]-3-phenylpropionamide] has a melting point of 103 to 104 °C.
